Literature values in US20070213270A1, “PEPTIDE YY FORMULATIONS HAVING INCREASED STABILITY AND RESISTANCE TO MICROBIAL AGENTS” (priority 2004, published 2007).

Key:
[1] = aqueous solution at physiologic pH

## 2-alkyl-4-hydroxyquinolines [pyo compound]
Ciliary motility
  concentration producing ciliostasis / inhibiting ciliary motility: 50 µg/mL

## CC(C)CC(N)B(O)O (centres unmarked) [boro-leucine]
aminopeptidases
  effectiveness in enzyme inhibition relative to bestatin: more than 100 times
  effectiveness in enzyme inhibition relative to puromycin: more than 1000 times

## CCN(CC)/[N+]([O-])=N/O.CCNCC [diethylamine/NO]
[1]
  rate of NO release: < 3 min

## NCCN(CCN)/[N+]([O-])=N/O [diethylenetriamine/NO (DETANO), diethylenetriamine/NO]
[1]
  rate of NO release: approximately 20 hours
